Assay results reported in patent US11571407B2, “Bicalutamide analogs or (S)-bicalutamide as exocytosis activating compounds for use in the treatment of a lysosomal storage disorder or glycogenosis” (BCN PEPTIDES, S.A., priority 2013, dated 2023).
Marks after values point to notes of the source that are not given here.

Tests used:
androgen receptors = conditions: cited from earlier work
[1] = test system: fibroblasts from patients affected by different lysosomal storage diseases; assay: Determination of lysosomal exocytosis (β-hexosaminidase activity in the culture medium); assay type: cell-based, human; conditions: for Increase in exocytosis (%), Median: Table 4 median over the patients' fibroblasts; for Increase in exocytosis (%), Median / Increase in exocytosis (%): 72 h; for cell cultures with significantly increased lysosomal exocytosis: thirteen patient fibroblast cultures, 50 and 100 μM, 72 hours
Procedure: (§1) Fibroblasts from thirteen patients affected by seven different lysosomal storage diseases (Fabry, Gaucher, Hurler, Niemann-Pick type A/B, Sanfilippo A, Sanfilippo B and Tay-Sachs) were cultured in DMEM (Dulbecco's modified Eagles medium) with 10% fetal bovine serum and in the presence of antibiotics (penicillin and streptomycin), at 37° C. with 5% CO2. All reagents were purchased from PAA Laboratories (Velizy-Villacoublay, France). The fibroblasts of the patients were selected on the basis of availability of fibroblasts and measurable residual activity. The use of human samples was approved by the Ethical Committee of Hospital Clinic, Barcelona
Fibroblasts cultured for 72 h in 24 well-plates in the presence or absence of bicalutamide, (S)-bicalutamide, (S)-bicalutamide analogs or (R)-bicalutamide at different concentrations in triplicate (10 nmol/L, 100 nmol/L, 1 μmol/L, 10 μmol/L, 50 μmol/L and 100 μmol/L), were rinsed with physiological saline. The cells were lysed by using 3 freeze-thaw cycles. Then protein concentration was determined by using the Lowry method. Protein lysates (10 μg) were seeded in 96-well plates and the enzymatic activity of the enzyme involved in each disease was determined in triplicate by means of fluorimetric artificial substrates: 4-methylumbelliferyl-α-N-sulphoglucosaminide for Sanfilippo A, 4-methylumbelliferyl-2-acetamido-2 deoxy-α-D-glucopyranoside for Sanfilippo B, 4-methylumbelliferyl-α-L-iduronide for Hurler, 4-methylumbelliferyl-N-acetyl-β-D-glucosaminide for Tay-sachs, 4-methylumbelliferyl-β-D-glucopyranoside for Gaucher, 4-methylumbelliferyl-α-Galactopiranosid for Fabry disease, and 6-hexadecanoylamino-4-methylumbelliferyl-P-colline for Niemann-Pick type AB. The activity of the enzyme β-hexosaminidase was assayed by using 4-methylumbelliferyl-2 acetamido-2 deoxy-β-D-glucopyranoside as artificial substrate [Annunziata et al., Study of influence of sex and age on human serum lysosomal enzymes by using 4-methylumbelliferyl substrates. Clin. Chim. Acta.
Lysosomal exocytosis was monitorized by measuring the enzymatic activity of the lysosomal enzyme β-hexosaminidase in the culture medium [Xu M, et al, δ-Tocopherol reduces lipid accumulation in Niemann-Pick type C1 and Wolman cholesterol storage disorders. […] The fibroblasts were previously treated with different concentrations of bicalutamide, (S)-bicalutamide or (R)-bicalutamide (10 nmol/L, 100 nmol/L, 1 μmol/L, 10 μmol/L, 50 μmol/L and 100 μmol/L) in triplicate in 24-well plates. At 0, 24, 48 and 72 hours, 30 μL of culture medium was aliquoted for the subsequent β-hexosaminidase activity assay.
Fibroblasts from two patients affected by Sanfilippo B and Hurler diseases were treated with different concentrations of bicalutamide (racemic mixture at increasing concentrations of 0.01, 0.1, 1, 10 and 100 μM). And the increase in lysosomal exocytosis was determined by analyzing the enzymatic activity of the lysosomal enzyme β-hexosaminidase in the culture medium.
Fibroblasts from thirteen patients affected by different lysosomal storage diseases (four Sanfilippo B disease patients with different genotypes, three Sanfilippo A disease patients with different genotypes, two Tay-Sachs disease patients with the same genotype, one Gaucher disease patient, one Niemann-pick type A/B disease patient, one Hurler disease patient, and one Fabry disease patient) were independently treated with different concentrations of (R)- and (S)-bicalutamide (50 and 100 μM) for 72 hours.

[2] = test system: fibroblasts from patients affected by different lysosomal storage diseases; assay: Determination of glycosaminoglycans (GAGs), 1,9-dimethylmethylene blue (DMB) assay; assay type: cell-based, human; conditions: for Decrease of GAGs (%), Median: Table 5 median over the patients' fibroblasts; for Decrease of GAGs (%), Median / Decrease of GAGs (%): 72 h; for decrease of glycosaminoglycans (in words): fibroblasts from seven patients, 50 and 100 μM
Procedure: as §1
Glycobiology. […] The fibroblasts were cultured in triplicate in 6-well plates and they were harvested 72 hours after treatment. DMB absorbance was measured in duplicate at 656 nm with a microplate reader (POLARstar Omega, BMG LABTECH, Offenburg, Germany).
Fibroblasts from three patients affected by Sanfilippo B disease and one patient affected by Hurler disease were treated with increasing concentrations of bicalutamide (racemic mixture at increasing concentrations of 0.01, 0.1, 1, 10 and 100 μM). Glycosaminoglycans (GAGs) levels were quantified with the 1,9-dimethylmethylene blue (DMB) assay.
Fibroblasts from seven patients affected by different diseases derived from lysosomal storage (three Sanfilippo B disease patients with different genotypes, one Sanfilippo A disease patient, one Tay-Sachs disease patient, one Niemann-Pick type A/B disease patient and one Hurler disease patient) were independently treated with different concentrations of (R)- and (S)-bicalutamide (50 and 100 μM).

[3] = Table 4 patient 1, Sanfilippo B fibroblasts, 50 μM
[4] = Table 4 patient 1, Sanfilippo B fibroblasts, 100 μM
[5] = Table 4 patient 2, Sanfilippo B fibroblasts, 50 μM
[6] = Table 4 patient 2, Sanfilippo B fibroblasts, 100 μM
[7] = Table 4 patient 3, Sanfilippo B fibroblasts, 50 μM
[8] = Table 4 patient 3, Sanfilippo B fibroblasts, 100 μM
[9] = Table 4 patient 4, Sanfilippo B fibroblasts, 50 μM
[10] = Table 4 patient 4, Sanfilippo B fibroblasts, 100 μM
[11] = Table 4 patient 5, Sanfilippo A fibroblasts, 50 μM
[12] = Table 4 patient 5, Sanfilippo A fibroblasts, 100 μM
[13] = Table 4 patient 6, Sanfilippo A fibroblasts, 50 μM
[14] = Table 4 patient 6, Sanfilippo A fibroblasts, 100 μM
[15] = Table 4 patient 7, Sanfilippo A fibroblasts, 50 μM
[16] = Table 4 patient 7, Sanfilippo A fibroblasts, 100 μM
[17] = Table 4 patient 8, Tay-Sachs fibroblasts, 50 μM
[18] = Table 4 patient 8, Tay-Sachs fibroblasts, 100 μM
[19] = Table 4 patient 9, Tay-Sachs fibroblasts, 50 μM
[20] = Table 4 patient 9, Tay-Sachs fibroblasts, 100 μM
[21] = Table 4 patient 10, Gaucher fibroblasts, 50 μM
[22] = Table 4 patient 10, Gaucher fibroblasts, 100 μM
[23] = Table 4 patient 11, Niemann-Pick AB fibroblasts, 50 μM
[24] = Table 4 patient 11, Niemann-Pick AB fibroblasts, 100 μM
[25] = Table 4 patient 12, Hurler fibroblasts, 50 μM
[26] = Table 4 patient 12, Hurler fibroblasts, 100 μM
[27] = Table 4 patient 13, Fabry fibroblasts, 50 μM
[28] = Table 4 patient 13, Fabry fibroblasts, 100 μM
[29] = Table 5 patient 1, Sanfilippo B fibroblasts, 50 μM
[30] = Table 5 patient 1, Sanfilippo B fibroblasts, 100 μM
[31] = Table 5 patient 2, Sanfilippo B fibroblasts, 50 μM
[32] = Table 5 patient 2, Sanfilippo B fibroblasts, 100 μM
[33] = Table 5 patient 3, Sanfilippo B fibroblasts, 50 μM
[34] = Table 5 patient 3, Sanfilippo B fibroblasts, 100 μM
[35] = Table 5 patient 4, Sanfilippo A fibroblasts, 50 μM
[36] = Table 5 patient 4, Sanfilippo A fibroblasts, 100 μM
[37] = Table 5 patient 5, Tay-Sachs fibroblasts, 50 μM
[38] = Table 5 patient 5, Tay-Sachs fibroblasts, 100 μM
[39] = Table 5 patient 6, Niemann-Pick AB fibroblasts, 50 μM
[40] = Table 5 patient 6, Niemann-Pick AB fibroblasts, 100 μM
[41] = Table 5 patient 7, Hurler fibroblasts, 50 μM
[42] = Table 5 patient 7, Hurler fibroblasts, 100 μM

For `C[C@@](O)(CS(=O)(=O)c1ccc(F)cc1)C(=O)Nc1ccc(C#N)c(C(F)(F)F)c1` (single isomer, unassigned) [(R)-BICALUTAMIDE (2)], the anti-androgenic activity (androgen receptors) is given as “exclusively found in the (R)-enantiomer”, the “Increase in exocytosis (%), Median” value ([1]; 50 μM) is given as 0% and the “Increase in exocytosis (%), Median” value ([1]; 100 μM) is given as 0%. For the same molecule, the “Increase in exocytosis (%)” value [1, 3] was 0%, the “Increase in exocytosis (%)” value [1, 4] was 257* % and the “Increase in exocytosis (%)” value [1, 5] was “N.S”. For the same molecule, the “Increase in exocytosis (%)” value [1, 6] was “N.S”, the “Increase in exocytosis (%)” value [1, 7] was “N.S” and the “Increase in exocytosis (%)” value [1, 8] was “N.S”. For the same molecule, the “Increase in exocytosis (%)” value [1, 9] was “N.S”, the “Increase in exocytosis (%)” value [1, 10] was 0% and the “Increase in exocytosis (%)” value [1, 11] was 0%. For the same molecule, the “Increase in exocytosis (%)” value [1, 12] was 0%, the “Increase in exocytosis (%)” value [1, 13] was “N.S” and the “Increase in exocytosis (%)” value [1, 14] was “N.S”. The “Increase in exocytosis (%)” value [1, 15] was “N.S”, the “Increase in exocytosis (%)” value [1, 16] was 0% and the “Increase in exocytosis (%)” value [1, 17] was “N.S”. The “Increase in exocytosis (%)” value [1, 18] was 0%, the “Increase in exocytosis (%)” value [1, 19] was “N.S” and the “Increase in exocytosis (%)” value [1, 20] was 0%. For the same molecule, the “Increase in exocytosis (%)” value [1, 21] was “N.S”, the “Increase in exocytosis (%)” value [1, 22] was 0% and the “Increase in exocytosis (%)” value [1, 23] was “N.S”. For the same molecule, the “Increase in exocytosis (%)” value [1, 24] was 0%, the “Increase in exocytosis (%)” value [1, 25] was “N.S” and the “Increase in exocytosis (%)” value [1, 26] was “N.S”. The “Increase in exocytosis (%)” value [1, 27] was “N.S”, the “Increase in exocytosis (%)” value [1, 28] was 0% and the “cell cultures with significantly increased lysosomal exocytosis” value [1] was “one of the tested cell cultures”. The “Decrease of GAGs (%), Median” value ([2]; 50 μM) was 0%, the “Decrease of GAGs (%), Median” value ([2]; 100 μM) was 25* % and the “Decrease of GAGs (%)” value [2, 29] was “N.S”. The “Decrease of GAGs (%)” value [2, 30] was 25* %, the “Decrease of GAGs (%)” value [2, 31] was “N.S” and the “Decrease of GAGs (%)” value [2, 32] was “N.S”. The “Decrease of GAGs (%)” value [2, 33] was 0%, the “Decrease of GAGs (%)” value [2, 34] was 33* % and the “Decrease of GAGs (%)” value [2, 35] was 0%. The “Decrease of GAGs (%)” value [2, 36] was 0%, the “Decrease of GAGs (%)” value [2, 37] was “N.S” and the “Decrease of GAGs (%)” value [2, 38] was 45* %. For the same molecule, the “Decrease of GAGs (%)” value [2, 39] was “N.S”, the “Decrease of GAGs (%)” value [2, 40] was 41* % and the “Decrease of GAGs (%)” value [2, 41] was 0%. The “Decrease of GAGs (%)” value [2, 42] was 16* % and the “decrease of glycosaminoglycans (in words)” value [2] was “a decrease of GAGs levels in some cases, but with a lower intensity and not universally”.

In the case of `C[C@@](O)(CS(=O)(=O)c1ccc(F)cc1)C(=O)Nc1ccc(C#N)c(C(F)(F)F)c1` [(S)-BICALUTAMIDE (1), (2S)-N-[4-cyano-3-(trifluoromethyl)phenyl]-3-[(4-fluorophenyl)sulfonyl]-2-hydroxy-2-methylpropanamide], the anti-androgenic activity (androgen receptors) is listed as “inactive”, the “Increase in exocytosis (%), Median” value ([1]; 50 μM) is listed as 114* % and the “Increase in exocytosis (%), Median” value ([1]; 100 μM) is listed as 124* %. The “Increase in exocytosis (%)” value [1, 3] was “N.S”, the “Increase in exocytosis (%)” value [1, 4] was “N.S” and the “Increase in exocytosis (%)” value [1, 5] was “N.S”. For the same molecule, the “Increase in exocytosis (%)” value [1, 6] was 166* %, the “Increase in exocytosis (%)” value [1, 7] was “N.S” and the “Increase in exocytosis (%)” value [1, 8] was “N.S”. The “Increase in exocytosis (%)” value [1, 9] was 33* %, the “Increase in exocytosis (%)” value [1, 10] was 28* % and the “Increase in exocytosis (%)” value [1, 11] was 72* %. The “Increase in exocytosis (%)” value [1, 12] was 39* %, the “Increase in exocytosis (%)” value [1, 13] was 70* % and the “Increase in exocytosis (%)” value [1, 14] was 64* %. The “Increase in exocytosis (%)” value [1, 15] was 121* %, the “Increase in exocytosis (%)” value [1, 16] was 109* % and the “Increase in exocytosis (%)” value [1, 17] was “N.S”. For the same molecule, the “Increase in exocytosis (%)” value [1, 18] was 127* %, the “Increase in exocytosis (%)” value [1, 19] was “N.S” and the “Increase in exocytosis (%)” value [1, 20] was 124* %. For the same molecule, the “Increase in exocytosis (%)” value [1, 21] was “N.S”, the “Increase in exocytosis (%)” value [1, 22] was “N.S” and the “Increase in exocytosis (%)” value [1, 23] was 114* %. For the same molecule, the “Increase in exocytosis (%)” value [1, 24] was 60* %, the “Increase in exocytosis (%)” value [1, 25] was 13629* % and the “Increase in exocytosis (%)” value [1, 26] was 5949* %. For the same molecule, the “Increase in exocytosis (%)” value [1, 27] was 5402* %, the “Increase in exocytosis (%)” value [1, 28] was 3432* % and the “cell cultures with significantly increased lysosomal exocytosis” value [1] was “ten of the thirteen”. For the same molecule, the “Decrease of GAGs (%), Median” value ([2]; 50 μM) was 18* %, the “Decrease of GAGs (%), Median” value ([2]; 100 μM) was 38* % and the “Decrease of GAGs (%)” value [2, 29] was “N.S”. The “Decrease of GAGs (%)” value [2, 30] was 22* %, the “Decrease of GAGs (%)” value [2, 31] was 18* % and the “Decrease of GAGs (%)” value [2, 32] was 39* %. The “Decrease of GAGs (%)” value [2, 33] was 15* %, the “Decrease of GAGs (%)” value [2, 34] was 20* % and the “Decrease of GAGs (%)” value [2, 35] was 27.4* %. For the same molecule, the “Decrease of GAGs (%)” value [2, 36] was 56* %, the “Decrease of GAGs (%)” value [2, 37] was 31* % and the “Decrease of GAGs (%)” value [2, 38] was 60* %. The “Decrease of GAGs (%)” value [2, 39] was 24* %, the “Decrease of GAGs (%)” value [2, 40] was 38* % and the “Decrease of GAGs (%)” value [2, 41] was 0%. The “Decrease of GAGs (%)” value [2, 42] was 0% and the “decrease of glycosaminoglycans (in words)” value [2] was “significant and dose-dependent decrease of glycoaminoglicans”.
